Source: patent US11279744B2, “Neuropeptide Y fragment capable of releasing hematopoietic stem cells into blood and treating osteoporosis” (Kyungpook National University Industry-Academic Cooperation …, priority 2017, dated 2022)
“Also recorded” adds a separate entry of the source. Non-standard residues stand in square brackets, D forms with d. No end group written: not given here.

Columns and labels:
[1] = test system: myelopoiesis progenitor cells in the blood; experiment: Colony-forming unit (CFU) assay, progenitor cells in blood of osteoporosis animal models; assay type: in vivo, mouse; conditions: OVX mice, 50 μg/kg i.p. twice a day for 4 weeks, blood 1 hour after last dose
Description: To make an osteoporosis model, 10-18 12 weeks old female mice per group underwent ovarian ablation. A week later, 50 μg/kg of NPY(21-28), NPY D^25(21-28), NPY D^26(21-28), NPY D^25,26(21-28), Osteopep2, NPY and 100 μl of PBS(Gibco) were intraperitoneally administered twice a day for 4 weeks at 12 hour intervals. Alendronate (Sigma), used as a competitive drug, was intraperitoneally administered once a week for 4 weeks at a dose of 50 μg/kg. As a control group, only Sham model of osteoporosis was performed by subcutaneous dissection of female mouse. Mice were placed in experimental groups using the Block randomization method, and all mouse experiments were approved through the Kyungpook National University Institutional Animal Care and Use Committee. CFU analysis was performed to determine the number of bone marrow hematopoietic progenitor cells in the blood of mice. After anesthetizing the mouse first, 500 μl to 700 μl of blood were collected in a heparin tube by cardiac drawing, and then placed in ammonium chloride solution (Stem Cell Technologies, Inc. 1:10) and placed on ice for 15 minutes to remove red blood cells. The red blood cells were well shaken at intervals of 2 to 3 minutes and centrifuged at 1000 rpm for 7 minutes. The supernatant was removed and washed with IMDM (Gibco) supplied with 2% fetal bovine serum (FBS, Gibco). The washed cells (3×10^5 per mouse) were divided into three 35 mm dishes containing methylcellulose-based media (Methocult, Stem cell), and after the cells were incubated for two weeks, the number of colonies formed in the flask was counted. In order to investigate whether the NPY (21-28) of the present invention affects the blood release of myelopoiesis stem cells in the animal models of osteoporosis, the following experiments were carried out according to the methods of Examples 1-1, 1-3, 1-4, and 1-5. In order to make animal models of osteoporosis, 12 weeks old C57BL/6 female mice were subjected to ovarian ablation for 10 to 18 animals in each group. One week later, 50 μg/kg of NPY (21-28) and 100 μl of PBS (Gibco) were intraperitoneally administered twice a day for 4 weeks at 12 hour intervals. As a control group, mice that underwent only subcutaneous incisions in normal mice were used. Weight change was measured weekly, and bone marrow and blood were collected one hour after the last dose at 4 weeks, and the release of myelopoiesis progenitor and stem cells into blood was analyzed. The positive control group, NPY (21-36), Osteopep2 and full length NPY (50 μg/kg, intraperitoneally administered twice a day for 4 weeks) were used. Alendronate used as a competitive drug for osteoporosis treatment was intraperitoneally administered at a dose of 50 μg/kg for 4 weeks once a week. […]

[2] = test system: myelopoiesis stem cells in the bone marrow; experiment: Flow cytometry analysis (FACs) of stem cells in bone marrow of osteoporosis animal models; assay type: in vivo, mouse; conditions: OVX mice, 50 μg/kg i.p. twice a day for 4 weeks; bone marrow 1 hour after last dose
Description: To make an osteoporosis model, 10-18 12 weeks old female mice per group underwent ovarian ablation. A week later, 50 μg/kg of NPY(21-28), NPY D^25(21-28), NPY D^26(21-28), NPY D^25,26(21-28), Osteopep2, NPY and 100 μl of PBS(Gibco) were intraperitoneally administered twice a day for 4 weeks at 12 hour intervals. Alendronate (Sigma), used as a competitive drug, was intraperitoneally administered once a week for 4 weeks at a dose of 50 μg/kg. As a control group, only Sham model of osteoporosis was performed by subcutaneous dissection of female mouse. Mice were placed in experimental groups using the Block randomization method, and all mouse experiments were approved through the Kyungpook National University Institutional Animal Care and Use Committee.
To examine the changes in the number of myelopoiesis stem cells in the bone marrow of the mouse, the bone marrows of mice were collected and analyzed by FACs using five antibodies such as Lineage, Sca-1, c-kit, CD150, and CD48 as markers of myelopoiesis stem cells. For the analysis of myelopoiesis stem cell, bone marrow collected from the tibias and the femurs in the animal models of osteoporosis injected with each peptide was removed from red blood cells with ammonium chloride solution (Stem Cell Technologies, Inc. 1:4). […] The remaining cells were reacted for 30 minutes at 4° C. using Sca-1-PECY7, c-kit-APC, CD150-PE, and CD48-FITC (BD science) antibodies, and then were analyzed by LSRII (BD science) flow cytometry.
In order to investigate whether the NPY (21-28) of the present invention affects the blood release of myelopoiesis stem cells in the animal models of osteoporosis, the following experiments were carried out according to the methods of Examples 1-1, 1-3, 1-4, and 1-5. […] Weight change was measured weekly, and bone marrow and blood were collected one hour after the last dose at 4 weeks, and the release of myelopoiesis progenitor and stem cells into blood was analyzed. […]

## NPY D^25(21-28): peptide in which arginine, the fifth amino acid of the amino acid sequence of NPY (21-28), is modified to D-type (YSAL[dR]HYI)
[1]
  releasing myelopoiesis progenitor cells into blood (CFU assay): increases
[2]
  number of myelopoiesis stem cells remaining in the bone marrow (FACs): reduced

## NPY D^25,26(21-28): peptide in which both the fifth and sixth amino acids of NPY (21-28) are modified to D-form (YSAL[dR][dH]YI)
[1]
  releasing myelopoiesis progenitor cells into blood (CFU assay): increases
[1]; listed as NPY D^25,26 (21-28)
  releasing myelopoiesis progenitor cells into blood (CFU assay): highest efficiency; also recorded: even better than that of NPY (21-28)
[2]
  number of myelopoiesis stem cells remaining in the bone marrow (FACs): reduced

## YSALRHYI [NPY (21-28)]
[1]
  releasing myelopoiesis progenitor cells into blood (CFU assay): increases; also recorded: superior to Osteopep2 and NPY
[2]
  number of myelopoiesis stem cells remaining in the bone marrow (FACs): reduced
